Data from ChEMBL document CHEMBL5325432, “Systematic study of 1,2,3-triazolyl sterols for the development of new drugs against parasitic Neglected Tropical Diseases” (Eur J Med Chem, 2023).

Legend:
[1] = Selectivity index, ratio of IC50 for cytotoxicity against African green monkey Vero cells to IC50 for antileishmanial activity against Leishmania donovani S1 promastigotes assessed as parasite growth inhibition; assay type: toxicity, cell-based; settings: read-out: Ratio IC50
[2] = Selectivity index, ratio of IC50 for cytotoxicity against African green monkey Vero cells to IC50 for antiparasitic activity against Trypanosoma brucei assessed as parasite growth inhibition; assay type: toxicity, cell-based; settings: read-out: Ratio IC50
[3] = Selectivity index, ratio of IC50 for cytotoxicity against African green monkey Vero cells to IC50 for antiparasitic activity against Trypanosoma cruzi epimastigotes assessed as parasite growth inhibition; assay type: toxicity, cell-based; settings: read-out: Ratio IC50
Trypanosoma cruzi = experiment: Antiparasitic activity against Trypanosoma cruzi epimastigotes assessed as parasite growth inhibition incubated for 14 days by Alamar blue assay; assay type: functional, organism-based; settings: 336 h
[4] = Cytotoxicity against African green monkey Vero cells incubated for 48 hrs; assay type: toxicity, cell-based; settings: African green monkey (Chlorocebus sabaeus)
Leishmania donovani = experiment: Antileishmanial activity against Leishmania donovani S1 promastigotes assessed as parasite growth inhibition incubated for 72 hrs by Alamar blue assay; assay type: functional, organism-based; settings: S1, 72 h
Trypanosoma brucei = experiment: Antiparasitic activity against Trypanosoma brucei assessed as parasite growth inhibition incubated for 3 days by Alamar blue assay; assay type: functional, organism-based; settings: 72 h
[5] = Cytotoxicity against human MRC5 cells incubated for 7 days by MTT colorimetric assay; assay type: toxicity, cell-based

| IC50 (Trypanosoma cruzi) | IC50 (Trypanosoma brucei) | Compound | selectivity ratio [1] | selectivity ratio [2] | selectivity ratio [3] | IC50 at 48 h [4] | IC50 (Leishmania donovani) | IC50 at 7 days [5] |
| --- | --- | --- | --- | --- | --- | --- | --- | --- |
| 8.13 µM | 0.63 µM | CCCCCCCCn1cc(CNC[C@](C)(O)[C@H]2CC[C@H]3[C@@H]4CC=C5C[C@@H](O)CC[C@]5(C)[C@H]4CC[C@@]32C)nn1 | > 6.33 | > 14.7 | > 1.14 | > 9.24 µM | 1.46 µM |  |
| 8.28 µM | 0.12 µM | C[C@]12CC[C@H]3[C@@H](CC=C4C[C@@H](O)CC[C@@]43C)[C@@H]1CC[C@@H]2[C@@](C)(O)CNCc1cn(Cc2ccccc2)nn1 | > 4.95 | > 80.3 | > 1.16 | > 9.64 µM | 1.95 µM |  |
| 7.8 µM | 0.66 µM | CCOC(=O)Cn1cc(CN[C@@H](C)[C@H]2CC[C@H]3[C@@H]4CC=C5C[C@@H](OC(C)=O)CC[C@]5(C)[C@H]4CC[C@]23C)nn1 | > 1.94 | > 14.4 | > 1.22 | > 9.49 µM | 4.9 µM |  |
| 6.3 µM | 0.2 µM | CC(=O)O[C@H]1CC[C@@]2(C)C(=CC[C@H]3[C@@H]4CC[C@H]([C@H](C)NCc5cn(CCCc6ccccc6)nn5)[C@@]4(C)CC[C@@H]32)C1 | > 2.99 | > 44.7 | > 1.42 | > 8.95 µM | 2.99 µM |  |
| 9 µM | 0.65 µM | CC(C)=CCC/C(C)=C/Cn1cc(CNC[C@](C)(O)[C@H]2CC[C@H]3[C@@H]4CC=C5C[C@@H](O)CC[C@]5(C)[C@H]4CC[C@@]32C)nn1 | > 11.4 | > 13.6 | > 0.98 | > 8.85 µM | 0.78 µM |  |
|  |  | Nc1nc(N)nc(Nc2ccc([As]3SCC(CO)S3)cc2)n1 (configuration not stated) [MELARSOPROL] |  | 62.5 |  |  |  | 12.5 µM |
